Data published in ChEMBL document CHEMBL1201862, “PubChem BioAssay data set” (2004).
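Compound exposure: 48 hours, 5 concentrations, 96-well plates. Abbreviation: GI50, concentration required for 50% inhibition of growth.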 The source made the active and inactive calls. Rule as the data show it: active = GI50 up to about 1.1 µM and inactive = higher.

Assays:
Assay in all cases: NCI-60 cell line screen, 48 h
EKVX = test system: EKVX
RXF 393 = test system: RXF 393
MDA-MB-231 = test system: MDA-MB-231
SNB-75 = test system: SNB-75
SW-620 = test system: SW-620
MDA-MB-435 = test system: MDA-MB-435
HOP-92 = test system: HOP-92
ACHN = test system: ACHN
NCI-H522 = test system: NCI-H522
MCF7 = test system: MCF7
SNB-19 = test system: SNB-19
T47D = test system: T47D
UO-31 = test system: UO-31
SF-295 = test system: SF-295
SN12C = test system: SN12C
MOLT-4 = test system: MOLT-4
UACC-257 = test system: UACC-257
KM12 = test system: KM12
CAKI-1 = test system: CAKI-1
RPMI-8226 = test system: RPMI-8226

Structure (SMILES)	GI50 (EKVX)	GI50 (RXF 393)	GI50 (MDA-MB-231)	GI50 (SNB-75)	GI50 (SW-620)	GI50 (MDA-MB-435)	GI50 (HOP-92)	GI50 (ACHN)	GI50 (NCI-H522)	GI50 (MCF7)	GI50 (SNB-19)	GI50 (T47D)	GI50 (UO-31)	GI50 (SF-295)	GI50 (SN12C)	GI50 (MOLT-4)	GI50 (UACC-257)	GI50 (KM12)	GI50 (CAKI-1)	GI50 (RPMI-8226)
C/C(=N\O)c1ccc(Nc2c3ccccc3nc3occc23)cc1	5.82 µM (inactive)	0.0352 µM (active)	0.9 µM (active)	0.662 µM (active)	0.21 µM (active)	0.0246 µM (active)	12.2 µM (inactive)	0.302 µM (active)	0.103 µM (active)	0.18 µM (active)	0.603 µM (active)	0.553 µM (active)	3.49 µM (inactive)	0.151 µM (active)	1.44 µM (inactive)	0.169 µM (active)	7.26 µM (inactive)	0.231 µM (active)	0.231 µM (active)	0.207 µM (active)
CC(C)CCNC(=O)c1ccc(CNC(=O)/C=C/c2csc(-c3ccccc3)n2)cc1	> 100 µM (inactive)	17.3 µM (inactive)	33 µM (inactive)	14.4 µM (inactive)	> 100 µM (inactive)	> 100 µM (inactive)	27.7 µM (inactive)	52.7 µM (inactive)	41 µM (inactive)	> 100 µM (inactive)	17.8 µM (inactive)	33.2 µM (inactive)	19.6 µM (inactive)	33.9 µM (inactive)	64.3 µM (inactive)	> 100 µM (inactive)	96.8 µM (inactive)	> 100 µM (inactive)	18.7 µM (inactive)	> 100 µM (inactive)
C=C1C(=O)O[C@@H]2C[C@@]3(C)CC(=O)C=C(C)[C@@H]3C[C@H]12	12.2 µM (inactive)	3.94 µM (inactive)	16.9 µM (inactive)	16.1 µM (inactive)	3.33 µM (inactive)	5.66 µM (inactive)	16.3 µM (inactive)	2.69 µM (inactive)	4.46 µM (inactive)	3.22 µM (inactive)	17.3 µM (inactive)	11.2 µM (inactive)	11.5 µM (inactive)	33.1 µM (inactive)	11.1 µM (inactive)	3.04 µM (inactive)	12.2 µM (inactive)	18.6 µM (inactive)	8.36 µM (inactive)	2.12 µM (inactive)
C=C=C(CC(CC(=C)Br)(C(=O)OC)C(=O)OC)S(=O)(=O)c1ccccc1	2.82 µM (inactive)	1.83 µM (inactive)	1.98 µM (inactive)	6.22 µM (inactive)	1.58 µM (inactive)	1.74 µM (inactive)	1.95 µM (inactive)	2.39 µM (inactive)	0.556 µM (active)	1.87 µM (inactive)	12.2 µM (inactive)	3.77 µM (inactive)	1.71 µM (inactive)	13.4 µM (inactive)	1.53 µM (inactive)	1.91 µM (inactive)	2.03 µM (inactive)	2.29 µM (inactive)	1.41 µM (inactive)	1.85 µM (inactive)
O=C1C=C2CO[C@H]3OC[C@H](O)[C@@H]1[C@@H]23	> 100 µM (inactive)	19.9 µM (inactive)	73.3 µM (inactive)	43 µM (inactive)	30.1 µM (inactive)	30.9 µM (inactive)	46.3 µM (inactive)	> 100 µM (inactive)	16.5 µM (inactive)	43.2 µM (inactive)	> 100 µM (inactive)	25.5 µM (inactive)	37.3 µM (inactive)	> 100 µM (inactive)	22.9 µM (inactive)	28.9 µM (inactive)	29.8 µM (inactive)	> 100 µM (inactive)	29 µM (inactive)	20.4 µM (inactive)
Cc1cccc(C)c1NC(=O)C(=O)C(c1ccccc1Cl)S(=O)(=O)Cc1ccccc1Cl (stereo not given)	> 100 µM (inactive)	29.8 µM (inactive)	31.1 µM (inactive)	11.2 µM (inactive)	> 100 µM (inactive)	> 100 µM (inactive)	18.2 µM (inactive)	53.3 µM (inactive)	> 100 µM (inactive)	> 100 µM (inactive)	41.5 µM (inactive)	> 100 µM (inactive)	> 100 µM (inactive)	23.7 µM (inactive)	> 85.5 µM (inactive)	> 100 µM (inactive)	> 100 µM (inactive)	> 100 µM (inactive)	39.3 µM (inactive)	> 100 µM (inactive)
N=C(N)N/N=C/c1c(-c2ccccc2[N+](=O)[O-])nc2sccn12	43.8 µM (inactive)	12.6 µM (inactive)	16.1 µM (inactive)	11.9 µM (inactive)	18.4 µM (inactive)	17.1 µM (inactive)	27.1 µM (inactive)	39.3 µM (inactive)	17 µM (inactive)	19.1 µM (inactive)	23.8 µM (inactive)	18.3 µM (inactive)	36.8 µM (inactive)	22 µM (inactive)	32.5 µM (inactive)	17.7 µM (inactive)	18.3 µM (inactive)	20.4 µM (inactive)	64.9 µM (inactive)	19.5 µM (inactive)
Clc1cc(OC23CC4CC(CC(C4)C2)C3)nc(Cl)n1	37.5 µM (inactive)	27.8 µM (inactive)	33.7 µM (inactive)	64.6 µM (inactive)	41.2 µM (inactive)	39.2 µM (inactive)	1.7 µM (inactive)	> 100 µM (inactive)	90.2 µM (inactive)	55.7 µM (inactive)	> 100 µM (inactive)	> 100 µM (inactive)	25.4 µM (inactive)	> 100 µM (inactive)	> 100 µM (inactive)	34 µM (inactive)	39 µM (inactive)	> 100 µM (inactive)	1.94 µM (inactive)	37.9 µM (inactive)
CC(=O)O[C@H]1CC[C@H]2[C@@H]3CCC4=C(C(=O)C=CC4(C)OC(C)=O)[C@H]3CC[C@]12C (stereo not given in full)	> 100 µM (inactive)	32.1 µM (inactive)	41 µM (inactive)	45 µM (inactive)	35.8 µM (inactive)	49.4 µM (inactive)	63.2 µM (inactive)	54 µM (inactive)	45.8 µM (inactive)	26.4 µM (inactive)	> 100 µM (inactive)	> 100 µM (inactive)	55.3 µM (inactive)	98.4 µM (inactive)	41.5 µM (inactive)	33.9 µM (inactive)	> 100 µM (inactive)	29.1 µM (inactive)	> 100 µM (inactive)	38.3 µM (inactive)
CN1c2c(O)nc(N)nc2NCC1CCNc1ccc(C(=O)NC(CCC(=O)O)C(=O)O)cc1 (stereo not given)	1260 µM (inactive)	1010 µM (inactive)	1530 µM (inactive)	553 µM (inactive)	52.4 µM (inactive)	104 µM (inactive)	1490 µM (inactive)	45.4 µM (inactive)	423 µM (inactive)	324 µM (inactive)	1820 µM (inactive)	1860 µM (inactive)	1310 µM (inactive)	187 µM (inactive)	540 µM (inactive)	33 µM (inactive)	1030 µM (inactive)	916 µM (inactive)	328 µM (inactive)	141 µM (inactive)
O=c1ccn(-c2ccccn2)c(=O)n1-c1ccccn1	> 100 µM (inactive)	> 100 µM (inactive)	> 100 µM (inactive)	> 100 µM (inactive)	> 100 µM (inactive)	> 100 µM (inactive)	> 100 µM (inactive)	> 100 µM (inactive)	> 100 µM (inactive)	> 100 µM (inactive)	> 100 µM (inactive)	> 100 µM (inactive)	> 100 µM (inactive)	> 100 µM (inactive)	> 100 µM (inactive)	> 100 µM (inactive)	> 100 µM (inactive)	> 100 µM (inactive)	> 100 µM (inactive)	> 100 µM (inactive)
CS/C(N)=N/c1cccc2ccccc12	> 10 µM (inactive)	> 10 µM (inactive)	> 10 µM (inactive)	> 10 µM (inactive)	> 10 µM (inactive)	> 10 µM (inactive)	> 10 µM (inactive)	> 10 µM (inactive)	> 10 µM (inactive)	> 10 µM (inactive)	> 10 µM (inactive)	> 10 µM (inactive)	> 10 µM (inactive)	> 10 µM (inactive)	> 10 µM (inactive)	> 10 µM (inactive)	> 10 µM (inactive)	> 10 µM (inactive)	> 10 µM (inactive)	> 10 µM (inactive)
CCCNC(=S)N/N=C(\C)c1ccc(S(=O)(=O)N(C)c2ccccc2)cc1	37.8 µM (inactive)	15.3 µM (inactive)	27.9 µM (inactive)	17.9 µM (inactive)	> 100 µM (inactive)	> 100 µM (inactive)	20.4 µM (inactive)	24.7 µM (inactive)	> 100 µM (inactive)	57 µM (inactive)	39.4 µM (inactive)	> 67.3 µM (inactive)	> 100 µM (inactive)	18.3 µM (inactive)	> 100 µM (inactive)	> 100 µM (inactive)	> 100 µM (inactive)	> 100 µM (inactive)	24.2 µM (inactive)	> 31.6 µM (inactive)
N#C/C(=C\c1cccc(Br)c1)c1nc2ccccc2c(=O)[nH]1	> 100 µM (inactive)	> 100 µM (inactive)	41.7 µM (inactive)	17.7 µM (inactive)	> 100 µM (inactive)	> 100 µM (inactive)	15.1 µM (inactive)	54.7 µM (inactive)	37.9 µM (inactive)	> 100 µM (inactive)	43.7 µM (inactive)	> 100 µM (inactive)	> 100 µM (inactive)	53.5 µM (inactive)	> 100 µM (inactive)	> 100 µM (inactive)	> 100 µM (inactive)	> 100 µM (inactive)	> 100 µM (inactive)	> 100 µM (inactive)
